The values below come from patent publication US20080139668A1, “PHARMACEUTICAL COMPOSITION FOR OBOVATOL FOR THE PREVENTION AND TREATMENT OF RESTENOSIS” (Korea Research Institute of Bioscience and Biotechnology, priority 2006, published 2008).

The subject of data set [1] is injured carotid artery.
Description: For the topical application of obovatol in vivo, pluronic gel was employed. F-127 pluronic gel (Sigma Chemical Company, Germany) was dissolved in cold, deionized water to give 40% gel one day before the experiment, and was allowed to stand at 4° C. for 12 hours to dissolve powdered F-127 pluronic gel completely. On the day of the experiment, obovatol was dissolved in a concentration of 10 μg/μL in 100% ethanol and 10 μL of the obovatol solution (10 μg/μL) was mixed with 90 μL of the 40% F-127 pluronic gel to afford 100 μL of obovatol-pluronic gel, comprising 100 μg of obovatol. A control was prepared in the same manner except that no obovatol was contained therein.
After rats were anaesthetized by abdominal injection with ketamine (50 mg/kg) and xylazine (6.7 mg/kg) and incised to expose the common carotid artery, the external carotid artery and the internal carotid artery were exteriorized through a ventral right line neck incision. While blood flow was temporarily halted by occluding the artery with microvascular clamps (Acland, S&T, Switzerland) at the proximal region of the common carotid artery and the distal region of the internal carotid artery, arteriotomy was performed on the external carotid artery. A 2F Fogarty arterial embolectomy catheter (Baxter Healthcare Corporation, USA) was inserted into the lumen of the right common carotid artery through the incised region and the balloon was inflated to a size larger than the diameter of the common carotid artery so as to generate slight arterial wall resistance. The catheter was advanced a predetermined distance and then withdrawn. This procedure was repeated a total of three times to induce endothelial denudation, after which the catheter (the balloon?) was removed from the arterial lumen. Then, the microvascular clamps were removed to allow blood to flow through the artery. Secretions and blood were completely removed from the exterior of the carotid artery before the obovatol-pluronic gel or the obovatol-lacking pluronic gel were topically applied in an amount of 100 μL to upper loci of the carotid artery, followed by ligation of the artery with a suture. Two weeks after the arteriotomy, a carotid artery angiography was conducted and a carotid artery sample was taken and analyzed histopathologically.
The subject of data set [2] is arterial smooth muscle cells. Description: Inhibition of PDGF-induced arterial smooth muscle cell proliferation (cell count). It is filed as cell-based, rat. As to conditions: obovatol 1, 3, 5 μM; 50 ng/ml PDGF-BB; 24, 48, 72 hours; FIG. 9. The method, then:
Obovatol was examined for inhibitory activity against the proliferation of arterial smooth muscle cells in rats. Arterial smooth muscle cells were plated at a density of 3.0×10^4 cells/well onto 12-well plates containing a DMEM medium supplemented with 0.5% (V/V) fetal bovine serum, and incubated for 24 hours After the addition of obovatol (1, 3, and 5 μM) to the plates, the cells were incubated for 24 hours. Treatment with 50 ng/ml of platelet-derived growth factor (PDGF-BB, Sigma Chem. Co., USA) was followed by incubation for 24, 48, and 72 hours. Thereafter, the cells were trypsinized and counted using a cell counter.

The next data set has as its system ICR mice. Description: Acute toxicity assay in mice. The format is in vivo, mouse. The note with it: abdominal injection 1000, 100, 10 mg/kg. On the procedure:
(§1) ICR mice (weighing 25±5 g) and SPF Sprague-Dawley rats (weighing 235±10 g) were separately divided into four groups of three and abdominally injected with the obovatol prepared in Example 2 at doses of 1000 mg/kg, 100 mg/kg, and 10 mg/kg and monitored for toxicity over 24 hours.

Data set [3] concerns injured carotid artery. In words: Carotid artery angiography in the rat carotid artery balloon injury model. The format is in vivo. As to conditions: 100 μg obovatol in 100 μL pluronic gel, topical to injured carotid artery; 14 days after arteriotomy; mean±S.E.; control 0.63±0.12; p<0.01. The method, then: A 4F vascular cannula (Cook, USA) was inserted into the ventral aorta and the catheter was advanced toward the head to a locus as close as possible to a branch between the common carotid arteryand the transverse aorta. After the injection of a contrast media (Visipaque™, Amersham Health, Cork, Ireland), mean luminal diameters (MLD) were measured using computerized coronary angiography (DCI Videodensitometry, Phillips, Netherlands)(See FIG. 1˜FIG. 8).
They were measured for the inner diameter of the carotid artery using a 5F coronary catheter, and the mean value thereof was used as a control.

For data set [4], the system named is arterial smooth muscle cells. In words: Inhibition of DNA synthesis ([3H] thymidine) in PDGF-treated arterial smooth muscle cells. The format is cell-based, rat. As to conditions: obovatol 1, 3, 5 μM, FIG. 10. The method, then: Arterial smooth muscle cells were cultured in the same manner as in Example 4, with the exception that the cells were cultured for 20 hours after treatment with platelet-derived growth factor, and then cultured for 4 hours in the presence of 1 μl of [3H] thymidine. The cultured cells were washed with PBS and incubated with 500 μl of TCA (trichloroacetic acid) for 30 min. After the removal of TCA, the cells were washed with a mixture of 1:1 ethanol:ether (v/v) and disrupted with 500 μl of NaOH. The cell lysate was mixed with 5 ml of a scintillation cocktail and measured for radioactivity to analyze relative amounts of newly synthesized DNA. FIG. 10 is a graph in which amounts of newly synthesized DNA in PDGF-treated arterial smooth muscle cells are plotted against concentrations of obovatol.

Data set [5] concerns arterial smooth muscle cells. Description: Cell cycle of arterial smooth muscle cells. The format is cell-based.
The test system of the next data set is SPF Sprague-Dawley rats. Description: Acute toxicity assay in rats. It is filed as in vivo, rat. As to conditions: abdominal injection 1000, 100, 10 mg/kg. On the procedure:
as §1

Setting [6] is: 100 μg obovatol in pluronic gel, topical, two weeks after injury, control 0.18 ± 0.06, P < 0.05.

Take obovatol: in the data set with injured carotid artery [1] (100 μg obovatol in pluronic gel, topical, two weeks after injury, control 0.12 ± 0.02, P > 0.05), the “Medial Area (mm^2)” value was determined as 0.11 ± 0.10 mm^2. Also, the “Intimal Area (mm^2)” value with injured carotid artery [1] (setting [6]) turned out to be 0.13 ± 0.03 mm^2. In addition, the “Intimal Thickness (mm)” value in the data set with injured carotid artery [1] (setting [6]) was 0.23 ± 0.02 mm. Further, the “Intimal-Medial Area Ratio” value in the data set on injured carotid artery [1] (100 μg obovatol in pluronic gel, topical, two weeks after injury, control 1.54 ± 0.48, P < 0.05) turned out to be 1.12 ± 0.23. The “Stenosis (%)” value in the data set on injured carotid artery [1] (100 μg obovatol in pluronic gel, topical, two weeks after injury, control 50.10 ± 13.25, P < 0.01) is on record as 34.94 ± 7.23%. In addition, the “cytotoxicity inferred from similar medial thickness to control” value in the data set on injured carotid artery [1] (rat, in vivo) is on record as “no cytotoxicity”. Besides, in data set [2], the “growth of arterial smooth muscle cells (cell count)” value was “inhibitory of the growth of arterial smooth muscle cells”. Also, the “abnormality (body weight, food intake, etc.)” value with ICR mice (24 hours) and in the data set on SPF Sprague-Dawley rats (24 hours) was “no abnormality observed in any of the animals” throughout. Besides, the death entry with ICR mice (monitored 24 hours) and with SPF Sprague-Dawley rats (monitored 24 hours) was “Death was observed in none of the four groups” in each case. The “inner diameter of carotid artery (mean luminal diameter)” value with injured carotid artery [3] stood at 0.78±0.06 mm. For the same substance, in data set [4], the “DNA synthesis ([3H] thymidine incorporation)” value is “decreases with the increasing concentration of obovatol”. The “proportion of cells in resting state (G0/G1) of the cell cycle” value in data set [5] is reported as “increased the proportion of cells in a resting state (G0/G1)”.
